The record followed here is patent publication US9375005B2, “5-halogenopyrazole indanyl carboxamides” (BAYER CROPSCIENCE AG, priority 2012, dated 2016).

One data set deals with Botrytis cinerea. Description: In vivo preventive test on Botrytis cinerea (grey mould). Conditions: dose 100 ppm; gherkin plants sprayed 24 h before contamination; grading 4 to 5 days after contamination. As for the experimental part:
Gherkin plants (“Vert petit de Paris” variety), sown in starter cups on a 50/50 peat soil-pozzolana substrate and grown at 24° C., are treated at the Z11 cotyledon stage by spraying with the active ingredient prepared as described above. Plants, used as controls, are treated with the mixture of acetone/tween/DMSO/water not containing the active material. After 24 hours, the plants are contaminated by spraying the cotyledons with an aqueous suspension of cryopreserved Botrytis cinerea spores (50 000 spores per ml). The spores are suspended in a nutrient solution composed of 10 g/L of PDB, 50 g/L of D-Fructose, 2 g/L of NH4NO3 and 1 g/L of KH2PO4. […] Grading (% of efficacy) is carried out 4 to 5 days after the contamination, in comparison with the control plants.

The subject of a further data set is Uromyces appendiculatus. Description: In vivo preventive test on Uromyces appendiculatus (bean rust). Conditions: bean plants sprayed 24 h before contamination, grading 11 days after contamination. The gist of the method: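 Saxa bean plants grown at 24° C were sprayed at the 2-leaf stage (9 cm) with compound in acetone/tween/DMSO/water; controls got solvent mix only. Leaves inoculated 24 h later with U. appendiculatus spores (150 000 spores/ml). Efficacy (%) graded 11 days post-inoculation versus controls.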

For the next data set, the system named is Pyrenophora teres. Put plainly: In vivo preventive test on Pyrenophora teres (net blotch on barley). Conditions: barley plants sprayed 24 h before contamination, grading 14 days after contamination. The protocol:
Barley plants (“Plaisant” variety), sown in starter cups on a 50/50 peat soil-pozzolana substrate and grown at 22° C., are treated at the 1-leaf stage (10 cm height) by spraying with the active ingredient prepared as described above. Plants, used as controls, are treated with the mixture of acetone/tween/DMSO/water not containing the active material. After 24 hours, the plants are contaminated by spraying the leaves with an aqueous suspension of Pyrenophora teres spores (12 000 spores per ml). The spores are collected from a 12-day-old culture. […] Grading (% of efficacy) is carried out 14 days after the contamination, in comparison with the control plants.

A further data set concerns Puccinia recondita. Description: In vivo preventive test on Puccinia recondita (brown rust on wheat). Conditions: wheat plants sprayed 24 h before contamination, grading 12 days after contamination. As for the experimental part: Plants, used as controls, are treated with the mixture of acetone/tween/DMSO/water not containing the active material. After 24 hours, the plants are contaminated by spraying the leaves with an aqueous suspension of Puccinia recondita spores (100 000 spores per ml). […] Grading (% of efficacy) is carried out 12 days after the contamination, in comparison with the control plants.

Data set [1] in a line: Measurement of log P values by HPLC on reversed phase columns (EEC directive 79/831 Annex V.A8). The format is physicochemical. Conditions: for logP: method marked [a].
The test system of another data set is Sphaerotheca fuliginea. Description: In vivo preventive test on Sphaerotheca fuliginea (powdery mildew on cucurbits). Conditions: dose 500 ppm; gherkin plants sprayed 24 h before contamination; grading 12 days after contamination. As for the experimental part: Gherkin plants (“Vert petit de Paris” variety), sown in starter cups on a 50/50 peat soil-pozzolana substrate and grown at 24° C., are treated at the Z11 cotyledon stage by spraying with the active ingredient prepared as described above. Plants, used as controls, are treated with the mixture of acetone/tween/DMSO/water not containing the active material. After 24 hours, the plants are contaminated by spraying the cotyledons with an aqueous suspension of Sphaerotheca fuliginea spores (100 000 spores per ml). The spores are collected from infected plants. The contaminated to gherkin plants are incubated at about 20° C. and at 70-80% relative humidity. Grading (% of efficacy) is carried out 12 days after the contamination, in comparison with the control plants.

The test system of the next data set is Septoria tritici. Put plainly: In vivo preventive test on Septoria tritici (leaf spot on wheat). Conditions: dose 500 ppm; wheat plants sprayed 24 h before contamination; grading 24 days after contamination. As for the experimental part: Wheat plants (“Scipion” variety), sown in starter cups on a 50/50 peat soil-pozzolana substrate and grown at 22° C., are treated at the 1-leaf stage (10 cm height) by spraying with the active ingredient prepared as described above. Plants, used as controls, are treated with the mixture of acetone/tween/DMSO/water not containing the active material. After 24 hours, the plants are contaminated by spraying the leaves with an aqueous suspension of cryopreserved Septoria tritici spores (500 000 spores per ml). […] Grading (% of efficacy) is carried out 24 days after the contamination, in comparison with the control plants.

The next data set deals with Alternaria brassicae. Put plainly: In vivo preventive test on Alternaria brassicae (leaf spot on radish). Conditions: dose 500 ppm; radish plants sprayed 24 h before contamination; grading 6 days after contamination vs control plants. As for the experimental part: Radish plants (“Pernod Clair” variety), sown in starter cups on a 50/50 peat soil-pozzolana substrate and grown at 17° C., are treated at the cotyledon stage by spraying with the active ingredient prepared as described above. Plants, used as controls, are treated with the mixture of acetone/tween/DMSO/water not containing the active material. After 24 hours, the plants are contaminated by spraying the cotyledons with an aqueous suspension of Alternaria brassicae spores (50 000 spores per ml). The spores are collected from a 15-day-old culture. […] Grading (% of efficacy) is carried out 6 days after the contamination, in comparison with the control plants.

On to `CC1CC2(CCCC2)c2cccc(NC(=O)c3c(C(F)F)nn(C)c3F)c21` (stereo not shown) [Example 103], for which the Eff. % with Botrytis cinerea is listed as 100%; in the data set with Uromyces appendiculatus (dose 100 ppm), 100%; in the data set on Pyrenophora teres (dose 100 ppm), 80%; in the data set on Puccinia recondita (dose 100 ppm), 98%. The logP in data set [1] was 4.39[a].
As to `Cn1nc(C(F)F)c(C(=O)Nc2cccc3c2CCC3C(C)(C)C)c1F` (stereo not shown) [Example 97], the Eff. % with Sphaerotheca fuliginea was 89%; with Uromyces appendiculatus (dose 500 ppm), 100%; in the data set on Septoria tritici, 79%; in the data set with Pyrenophora teres (dose 500 ppm) it was 83%; with Puccinia recondita (dose 500 ppm), 98%. The logP in data set [1] is 4.39[a].
In the case of `CCC1(CC)Cc2c(NC(=O)c3c(C(F)F)nn(C)c3F)cccc2C1C` (stereo not shown) [Example 101], the Eff. % in the data set with Sphaerotheca fuliginea is recorded as 100%; in the data set with Alternaria brassicae it was 100%; with Uromyces appendiculatus (dose 500 ppm), 100%; in the data set on Septoria tritici, 88%; in the data set on Puccinia recondita (dose 500 ppm), 98%. Moreover, in data set [1], the logP is 4.67[a].
Turning to `CC1CC(C(C)C)c2cccc(NC(=O)c3c(C(F)F)nn(C)c3F)c21` (stereo not shown) [Example 34], the Eff. % was 95% in the data set with Sphaerotheca fuliginea; 93% in the data set on Alternaria brassicae; 100% in the data set on Uromyces appendiculatus (dose 500 ppm); 85% in the data set on Septoria tritici; 97% in the data set on Pyrenophora teres (dose 500 ppm); 97% in the data set on Puccinia recondita (dose 500 ppm). For the same molecule, the logP in data set [1] is 4.19[a].
Take `Cn1nc(C(F)F)c(C(=O)Nc2cccc3c2CC(C)(C)C3)c1F` [Example 72]: the Eff. % with Sphaerotheca fuliginea was determined as 100%; in the data set with Uromyces appendiculatus (dose 500 ppm), 100%; with Septoria tritici it was 71%; in the data set on Puccinia recondita (dose 500 ppm), 98%. Further, the logP in data set [1] is 3.64[a].
`CC1CC(C(C)C)c2cccc(NC(=O)c3c(C(F)F)nn(C)c3Cl)c21` (stereo not shown) [Example 35]: the Eff. % came to 79% in the data set on Alternaria brassicae, 100% in the data set on Uromyces appendiculatus (dose 500 ppm), 80% with Septoria tritici and 97% in the data set with Puccinia recondita (dose 500 ppm). Further, the logP in data set [1] was 4.46[a].
Take `CCC1Cc2c(NC(=O)c3c(C(F)F)nn(C)c3F)cccc2C1(C)C` (stereo not shown) [Example 86]: the Eff. % in the data set with Alternaria brassicae was found to be 96%; in the data set on Uromyces appendiculatus (dose 500 ppm), 100%; in the data set with Septoria tritici, 93%; in the data set on Pyrenophora teres (dose 500 ppm) it was 92%; in the data set on Puccinia recondita (dose 500 ppm), 100%. Moreover, the logP in data set [1] is 4.34[a].
Take `CC1c2cccc(NC(=O)c3c(C(F)F)nn(C)c3Cl)c2CC12CCCC2` (stereo not shown) [Example 33, 5-chloro-3-(difluoromethyl)-1-methyl-N-(1′-methyl-1′,3′-dihydrospiro[cyclopentane-1,2′-inden]-4′-yl)-1H-pyrazole-4-carboxamide]: the Eff. % is listed as 95% with Sphaerotheca fuliginea; 86% in the data set on Alternaria brassicae; 100% in the data set on Uromyces appendiculatus (dose 500 ppm); 90% in the data set on Septoria tritici; 93% in the data set on Puccinia recondita (dose 500 ppm). Further, the chromatographic logP in data set [1] (pH 2.7) came to 4.63.
As to `CC(C)CC1CC(C)c2c(NC(=O)c3c(C(F)F)nn(C)c3F)cccc21` (stereo not shown) [Example 80], the Eff. % in the data set on Sphaerotheca fuliginea is given as 98%; with Alternaria brassicae, 97%; with Uromyces appendiculatus (dose 500 ppm), 100%; with Septoria tritici, 86%; with Pyrenophora teres (dose 500 ppm) it was 97%; in the data set on Puccinia recondita (dose 500 ppm) it was 98%. Further, in data set [1], the logP was 4.71[a].
Turning to `Cn1nc(C(F)F)c(C(=O)Nc2cccc3c2CC(C)(C)C3)c1Cl` [Example 73], the Eff. % with Sphaerotheca fuliginea is recorded as 100%; with Alternaria brassicae, 83%; in the data set on Uromyces appendiculatus (dose 500 ppm) it was 100%; in the data set with Septoria tritici, 71%; with Puccinia recondita (dose 500 ppm) it was 100%. Further, the logP in data set [1] is 3.21[a].
As to `CCC1Cc2c(NC(=O)c3c(C(F)F)nn(C)c3Cl)cccc2C1(C)C` (stereo not shown) [Example 90], the Eff. % with Sphaerotheca fuliginea is listed as 100%; with Alternaria brassicae it was 90%; in the data set with Uromyces appendiculatus (dose 500 ppm), 100%; in the data set with Septoria tritici, 79%; in the data set with Pyrenophora teres (dose 500 ppm) it was 75%; in the data set on Puccinia recondita (dose 500 ppm) it was 100%. The logP in data set [1] is 4.61[a].
Consider `Cn1nc(C(F)F)c(C(=S)Nc2cccc3c2CCC3C(C)(C)C)c1F` (stereo not shown) [Example 75], for which the Eff. % with Sphaerotheca fuliginea is 100%; in the data set on Uromyces appendiculatus (dose 500 ppm) it was 100%; in the data set on Septoria tritici, 79%; in the data set on Puccinia recondita (dose 500 ppm) it was 100%. In addition, the logP in data set [1] is 4.51[a].
Turning to `CC1c2cccc(NC(=O)c3c(C(F)F)nn(C)c3F)c2CC12CCCC2` (stereo not shown) [Example 32], the Eff. % with Sphaerotheca fuliginea worked out at 98%; with Alternaria brassicae it was 93%; in the data set with Uromyces appendiculatus (dose 500 ppm), 100%; in the data set on Septoria tritici, 90%; with Pyrenophora teres (dose 500 ppm) it was 97%; with Puccinia recondita (dose 500 ppm), 100%. Also, the logP in data set [1] is 4.39[a].
With `CC(C)C1Cc2c(NC(=O)c3c(C(F)F)nn(C)c3F)cccc2C1(C)C` (stereo not shown) [Example 5], the Eff. % in the data set on Sphaerotheca fuliginea is reported as 100%; in the data set on Alternaria brassicae, 100%; with Uromyces appendiculatus (dose 500 ppm), 100%; in the data set on Septoria tritici it was 93%; with Puccinia recondita (dose 500 ppm), 100%. Moreover, the logP in data set [1] is 4.69[a].
Regarding `CC(C)C1Cc2cccc(NC(=O)c3c(C(F)F)nn(C)c3Cl)c2C1C` (stereo not shown) [Example 48], the Eff. % with Sphaerotheca fuliginea is given as 100%; in the data set with Uromyces appendiculatus (dose 500 ppm) it was 100%; with Septoria tritici, 80%; with Puccinia recondita (dose 500 ppm), 100%. In addition, the logP in data set [1] is 4.49[a].
With `CC1CC(CC(C)(C)C)c2cccc(NC(=O)c3c(C(F)F)nn(C)c3Cl)c21` (stereo not shown) [Example 69], the Eff. % came out at 100% in the data set with Sphaerotheca fuliginea, 100% with Uromyces appendiculatus (dose 500 ppm), 71% with Septoria tritici and 98% in the data set on Puccinia recondita (dose 500 ppm). In data set [1], the logP was 5.22[a].
Consider `CCCON=C1CCc2c(NC(=O)c3c(C(F)F)nn(C)c3Cl)cccc21` [Example 23], for which the Eff. % in the data set with Sphaerotheca fuliginea is listed as 70%; in the data set on Uromyces appendiculatus (dose 500 ppm), 82%; with Septoria tritici, 90%. Further, in data set [1], the logP was 3.76[a].
In the case of `CC1CC(CC(C)(C)C)c2cccc(NC(=O)c3c(C(F)F)nn(C)c3F)c21` (stereo not shown) [Example 70], the Eff. % was 100% in the data set with Sphaerotheca fuliginea; 89% in the data set on Alternaria brassicae; 100% in the data set with Uromyces appendiculatus (dose 500 ppm); 79% with Septoria tritici; 98% in the data set on Puccinia recondita (dose 500 ppm). The logP in data set [1] was 4.92[a].
As to `CCC1(CC)Cc2c(NC(=O)c3c(C(F)F)nn(C)c3Cl)cccc2C1C` (stereo not shown) [Example 93], the Eff. % in the data set on Sphaerotheca fuliginea stood at 98%; in the data set on Uromyces appendiculatus (dose 500 ppm), 100%; with Septoria tritici it was 75%; in the data set with Puccinia recondita (dose 500 ppm), 98%. For the same molecule, the logP in data set [1] is 4.92[a].
